Measurements from patent US4686207A (Abbott Laboratories, priority 1985, dated 1987).
Structures can show the parent of a compound that is named as a salt.

What was measured:
Staph. aureus 10649 [1] = test: Chronic abscess model, in vivo efficacy vs. Staph. aureus 10649; design: species or system Staph. aureus (infected mouse); conditions: mice pretreated with milk
Text: Thus, the improved oral activity of the compounds of formula I can be attributed to improved gastrointestinal absorption of these compounds. […] In this model, sustained blood levels of antibiotic will prevent reinfection by the organism at the abscess site after the last treatment.

Staph. aureus 10649 [2] = test: Acute mouse protection, in vivo efficacy vs. Staph. aureus 10649 (100-1000 LD50 s); design: species or system Staph. aureus (infected mouse); conditions: for ED50 Oral (milk) / ED50 Subcutaneous / ED50: Acute Mouse Protection
Text: In Vivo Efficacy vs. Staph. aureus 10649
Model Number Subcutaneous
Thus, the improved oral activity of the compounds of formula I can be attributed to improved gastrointestinal absorption of these compounds.

[3] = pH 4; cited from earlier work
[4] = in man; cited from earlier work
[5] = in vivo; cited from earlier work
Acid stability = format: physicochemical; conditions: compared with erythromycin A
[6] = Serum blood levels after oral administration to beagle dogs (FIG. 1); format: in vivo, beagle dog; conditions: 10.0 mg/kg, solution of a buffered salt in water, three beagle dogs, 24 hours
Procedure: The serum half-lives of the new compounds have been measured in both rats and dogs (t0.5 =2-3 hours in rats, 8-12 hours in dogs). […] Similarly, erythromycin A was administered to other dogs at an equal dosage. Serum concentrations of the administered drug were determined hourly over the 24 hours following administration. The results are depicted in FIG. 1.

[7] = test system: gastrointestinal tissues (stomach, duodenum, jejunum and ileum); test: Gastrointestinal stimulating activity in a dog model, overall; conditions: 2 mg/kg intravenously
Procedure: Contractions in the gut were recorded with surgically implanted strain gauges.

[8] = oral, mice pretreated with milk
[9] = Staphylococcus aureus, 10649, po, oral, mice pretreated with milk, read-out: ED50 Oral (milk)
[10] = Staphylococcus aureus, 10649, sc, subcutaneous, read-out: ED50 Subcutaneous

4"-N,N-dimethylglycylerythromycin A 11,12-carbonate 6,9-hemiacetal monohydrochloride salt [Example 7]
ED50 Oral (milk) (Staph. aureus 10649 [1]): 36 mg/kg

4"-N-CBZ-sarcosyl erythryomycin A 11,12-carbonate-6,9-hemiacetal [Example 6]
ED50 Oral (milk) (Staph. aureus 10649 [2]; [8]): 34 mg/kg | ED50 Subcutaneous (Staph. aureus 10649 [2]; subcutaneous): 35 mg/kg

CC[C@H]1OC(=O)[C@H](C)[C@@H](O[C@H]2C[C@@](C)(OC)[C@@H](O)[C@H](C)O2)[C@H](C)[C@@H](O[C@@H]2O[C@H](C)C[C@H](N(C)C)[C@H]2O)[C@](C)(O)C[C@@H](C)C(=O)[C@H](C)[C@@H](O)[C@]1(C)O [Compound 1, erythromycin A]
antibacterial activity in an environment of high acidity [3]: rapidly loses its antibacterial activity | serum half-life [4]: 2 to 3 h | ED50 Oral (milk) (Staph. aureus 10649 [2]; [8]): 52 mg/kg | ED50 Subcutaneous (Staph. aureus 10649 [2]; subcutaneous): 9 mg/kg | ED50 (Staph. aureus 10649 [2]; [9]): 81 mg/kg | ED50 (Staph. aureus 10649 [2]; [10]): 6 mg/kg | oral absorption [5]: unreliably absorbed when administered orally | ED50 (Staph. aureus 10649 [1]; Staphylococcus aureus, 10649, oral): 200 mg/kg

CC[C@H]1OC(=O)[C@H](C)[C@@H](O[C@H]2C[C@@](C)(OC)[C@@H](O)[C@H](C)O2)[C@H](C)[C@@H](O[C@@H]2O[C@H](C)C[C@H](N(C)C)[C@H]2O)[C@@]2(C)C[C@@H](C)C(O)(O2)[C@H](C)[C@H]2OC(=O)O[C@@]21C [Compound 2, erythromycin A 11,12-carbonate-6,9-hemiacetal]
ED50 (Staph. aureus 10649 [2]; [9]): 69 mg/kg | ED50 (Staph. aureus 10649 [2]; [10]): 15 mg/kg | subcutaneous versus oral activity (Staph. aureus 10649 [2]; Table I, milk-pretreated mice): more active subcutaneously than orally | acid stability relative to erythromycin A (Acid stability): significantly more acid-stable than erythromycin A

CC[C@H]1OC(=O)[C@H](C)[C@@H](O[C@H]2C[C@@](C)(OC)[C@@H](OC(C)=O)[C@H](C)O2)[C@H](C)[C@@H](O[C@@H]2O[C@H](C)C[C@H](N(C)C)[C@H]2O)[C@](C)(O)C[C@@H](C)C(=O)[C@H](C)[C@@H](O)[C@]1(C)O [Compound 3, 4"-acetylerythromycin A]
ED50 (Staph. aureus 10649 [2]; [9]): 100 mg/kg | ED50 (Staph. aureus 10649 [2]; [10]): 30 mg/kg

CC[C@H]1OC(=O)[C@H](C)[C@@H](O[C@H]2C[C@@](C)(OC)[C@@H](OC(C)=O)[C@H](C)O2)[C@H](C)[C@@H](O[C@@H]2O[C@H](C)C[C@H](N(C)C)[C@H]2O)[C@@]2(C)C[C@@H](C)C(O)(O2)[C@H](C)[C@H]2OC(=O)O[C@@]21C [Compound 4, 4"-acetylerythromycin A 11,12-carbonate-6,9-hemiketal HCl salt]
ED50 (Staph. aureus 10649 [2]; [9]): 40 mg/kg | ED50 (Staph. aureus 10649 [2]; [10]): 27 mg/kg

CC[C@H]1OC(=O)[C@H](C)[C@@H](O[C@H]2C[C@@](C)(OC)[C@@H](OC(C)=O)[C@H](C)O2)[C@H](C)[C@@H](O[C@@H]2O[C@H](C)C[C@H](N(C)C)[C@H]2O)[C@@]2(C)C[C@@H](C)C(O)(O2)[C@H](C)[C@H]2OC(=O)O[C@@]21C [Compound 7, 4"-acetylerythromycin A 11,12-carbonate-6,9-hemiacetal free base]
half life relative to erythromycin A [6]: markedly longer half life | peak blood level relative to erythromycin A [6]: higher peak blood level

CC[C@H]1OC(=O)[C@H](C)[C@@H](O[C@H]2C[C@@](C)(OC)[C@@H](O)[C@H](C)O2)[C@H](C)[C@@H](O[C@@H]2O[C@H](C)C[C@H](N(C)C)[C@H]2O)[C@](C)(O)C[C@@H](C)C(=O)[C@H](C)[C@@H](O)[C@]1(C)O [erythromycin A lactobionate]
stimulation of the stomach, duodenum, jejunum and ileum [7]: pronounced stimulation
